{"source": "paper PMC4012000", "about": "(Pharmaceutical research, 2013)", "tested_on": "Caco-2 cells", "assay": "Effect of curcumin on efflux transporters and permeability in Caco-2 cells", "format": "cell-based", "conditions": "in vitro studies, data not shown"}
{"compound": "COc1cc(/C=C/C(=O)CC(=O)/C=C/c2ccc(O)c(OC)c2)ccc1O", "note": "[curcumin, Curcumin]", "values": [{"measurement": "effect on efflux transporters", "result": "down-regulation of BCRP, MDR1 and MRP1"}]}
